US20210276977A1, “BICYCLIC INHIBITORS OF HISTONE DEACETYLASE” (Alkermes, Inc., priority 2018, published 2021)

Assays:
HDAC2 = biological target: T1, HDAC2 (Homo sapiens, UniProt Q92769); experiment: HDAC2 Enzymatic Inhibition Assay in SH-SY5Y Cell Lysate with an Exogenous Substrate (HDAC-Glo 2); assay type: cell-based; settings: SH-SY5Y cells, five hours incubation, Table 3, class symbols
T1 construct: host or cells: SH-SY5Y cells
Description: HDAC2 Enzymatic Inhibition Assay in SH-SY5Y Cell Lysate with an Exogenous Substrate
SH-SY5Y cells (Sigma) were cultured in Eagle's Modified Essential Medium supplemented with 10% fetal bovine serum and pen/strep. Twenty-four hours prior to compound dosing 20 uL of cells were plated in white 384 well plates at a density of 1,500 cells/well. Compounds were serially diluted in neat DMSO and then diluted 1:100 v/v into media without FBS and mixed. Media was removed from the plated cells and the diluted compounds in serum free media (1% v/v final DMSO) were added and incubated at 37° C. for five hours. Ten uL of HDAC-Glo 2 reagent with 0.1% Triton X-100 was then added, the plate was mixed and allowed to develop at room temperature for 100 minutes. Plates were then read with a Spectramax LMax luminometer employing a 0.4 s integration time. Dose response curves were constructed with normalized data where CI-994 at 100 uM was defined as 100% inhibition and DMSO alone as 0% inhibition.
(§1) In the table, “A” indicates a IC50 value of less than 0.5 μM; “B” a IC50 value from 0.5 μM to 1.0 μM; “C” a IC50 value of greater than 1.0 μM and less than or equal to 2.0 μM; and “D” indicates an IC50 value of greater than 2.0 μM. NT=Not Tested.

Full length Human HDAC1 = biological target: T2, Full length Human HDAC1 (Homo sapiens, UniProt Q13547); experiment: HDAC1 enzymatic assay (deacetylation of FAM-labeled peptide substrate, microfluidic electrophoresis); assay type: biochemical; settings: recombinant enzymatic assay
T2 construct: Full length Human HDAC1; His (C); FLAG (C); host or cells: baculovirus expression system
T2 sequence (Q13547 whole entry): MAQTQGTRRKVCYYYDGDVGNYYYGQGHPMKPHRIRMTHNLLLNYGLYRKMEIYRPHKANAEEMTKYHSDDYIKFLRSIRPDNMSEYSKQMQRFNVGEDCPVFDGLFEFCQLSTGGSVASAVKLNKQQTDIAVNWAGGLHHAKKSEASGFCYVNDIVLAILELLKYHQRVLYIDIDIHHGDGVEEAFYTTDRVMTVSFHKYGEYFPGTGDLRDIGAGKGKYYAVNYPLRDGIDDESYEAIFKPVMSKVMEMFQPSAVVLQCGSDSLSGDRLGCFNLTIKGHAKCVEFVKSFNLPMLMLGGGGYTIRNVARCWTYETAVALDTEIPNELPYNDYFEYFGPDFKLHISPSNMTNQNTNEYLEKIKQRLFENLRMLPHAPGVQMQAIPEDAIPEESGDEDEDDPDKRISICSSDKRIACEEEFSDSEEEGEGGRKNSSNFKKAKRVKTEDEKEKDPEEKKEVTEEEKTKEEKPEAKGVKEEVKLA
Description: (§2) HDAC2 and HDAC1 Enzymatic Assay (HDAC2 and HDAC1 IC50 Data)
(§3) The following describes an assay protocol for measuring the deacetylation of a peptide substrate by HDAC2 or HDAC1.
(§4) HD AC protein composition and respective substrate peptides are summarized below.
(§5) HD AC reactions are assembled in 384 well plates (Greiner) in a total volume of 20 μL as following:
(§6) HDAC proteins are pre-diluted in the assay buffer comprising: 100 mM HEPES, pH 7.5, 0.1% BSA, 0.01% Triton X-100, 25 mM KCl and dispensed into 384 well plate (10 uL per well).
(§7) Test compounds are serially pre-diluted in DMSO and added to the protein samples by acoustic dispensing (Labcyte Echo). Concentration of DMSO is equalized to 1% in all samples.
(§8) Control samples (0%-inhibition in the absence of inhibitor, DMSO only) and 100%-inhibition (in the absence of enzyme) are assembled in replicates of four and used to calculate the %-inhibition in the presence of compounds.
(§9) At this step compounds can be pre-incubated with enzyme if desired.
(§10) The reactions are initiated by addition of 10 uL of the FAM-labeled substrate peptide pre-diluted in the same assay buffer. Final concentration of substrate peptide is 1 uM (HDAC1-2).
(§11) The reactions are allowed to proceed at room temperature. Following incubation, the reactions are quenched by addition of 50 μL of termination buffer (100 mM HEPES, pH7.5, 0.01% Triton X-100, 0.1% SDS). Terminated plates are analyzed on a microfluidic electrophoresis instrument (Caliper LabChip® 3000, Caliper Life Sciences/Perkin Elmer) which enables electrophoretic separation of de-acetylated product from acetylated substrate. A change in the relative intensity of the peptide substrate and product is the parameter measured. Activity in each test sample is determined as the product to sum ratio (PSR): P/(S+P), where P is the peak height of the product, and S is the peak height of the substrate. Percent inhibition (Pinh) is determined using the following equation: Pinh=(PSR0% inh−PSRcompound)/(PSR0% inh−PSR100% inh)*100, in which: PSRcompound is the product/sum ratio in the presence of compound, PSR0% inh is the product/sum ratio in the absence of compound and the PSR100% inh is the product/sum ratio in the absence of the enzyme. To determine IC50 of compounds (50%-inhibition) the %-inh data (Pinh versus compound concentration) are fit by a 4 parameter sigmoid dose-response model using XLfit software (IDBS).
as §1

Full length Human HDAC2 = biological target: T3, Full length Human HDAC2 (Homo sapiens, UniProt Q92769); experiment: HDAC2 enzymatic assay (deacetylation of FAM-labeled peptide substrate, microfluidic electrophoresis); assay type: biochemical; settings: recombinant enzymatic assay
T3 construct: Full length Human HDAC2; FLAG (C); host or cells: baculovirus expression system
T3 sequence (Q92769 whole entry): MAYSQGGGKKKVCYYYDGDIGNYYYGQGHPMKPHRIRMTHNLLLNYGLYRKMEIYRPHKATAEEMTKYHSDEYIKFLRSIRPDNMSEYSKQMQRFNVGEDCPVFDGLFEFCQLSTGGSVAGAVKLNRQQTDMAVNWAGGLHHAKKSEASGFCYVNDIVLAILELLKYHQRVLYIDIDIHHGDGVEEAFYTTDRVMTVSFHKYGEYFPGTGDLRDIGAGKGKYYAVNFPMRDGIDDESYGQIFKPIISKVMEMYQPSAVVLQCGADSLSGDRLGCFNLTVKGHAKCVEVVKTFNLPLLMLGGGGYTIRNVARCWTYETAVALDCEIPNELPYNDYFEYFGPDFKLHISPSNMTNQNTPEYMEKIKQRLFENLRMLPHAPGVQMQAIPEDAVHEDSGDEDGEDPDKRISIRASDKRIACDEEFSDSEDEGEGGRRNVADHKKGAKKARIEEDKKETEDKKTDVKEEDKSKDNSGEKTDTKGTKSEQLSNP
Description: as §2, §3, §4, §5, §6, §7, §8, §9, §10, §11, §1

T1 sequence (Q92769 whole entry): as above

Row | SMILES | IC50 (HDAC2) [nM] | IC50 (Full length Human HDAC1; Table 2, class symbols) [nM] | IC50 (Full length Human HDAC2; Table 2, class symbols) [nM] | IC50 (Full length Human HDAC1; Table 2, numeric value) [nM] | IC50 (Full length Human HDAC2; Table 2, numeric value) [nM]
1 | Cc1ccc(CC2CN(C(=O)Nc3nc(-c4ccc(F)cc4F)ccc3N)C2)nn1 [Compound 24] | < 500 | 500 to 1000 | 1000 to 2000 |  | 
2 | Nc1ccc(-c2ccccc2F)nc1NC(=O)N1CC(Cc2ncc(F)cn2)C1 [Compound 26] | 1000 to 2000 | 500 to 1000 | 500 to 1000 |  | 
3 | Nc1ccc(-c2ccc(F)cc2)nc1NC(=O)N1CC(Cc2ncc(F)cn2)C1 [Compound 27] | 500 to 1000 | < 500 | < 500 |  | 
4 | Nc1ccc(-c2ccc(F)cc2F)nc1NC(=O)N1CC(Cn2cccn2)C1 [Compound 30] | 1000 to 2000 | 1000 to 2000 | 1000 to 2000 |  | 
5 | Nc1ccc(-c2ccc(F)cc2F)nc1NC(=O)N1CC(Cn2ccnc2)C1 [Compound 31] | > 2000 | > 2000 | > 2000 |  | 
6 | Nc1ccc(-c2ccc(F)cc2F)nc1NC(=O)N1CC(C(F)(F)c2ncccn2)C1 [Compound 33] | 1000 to 2000 | 500 to 1000 | 500 to 1000 |  | 
7 | Nc1ccc(-c2ccc(F)cc2F)nc1NC(=O)N1CC(C(F)(F)c2ncc(F)cn2)C1 [Compound 34] | > 2000 | 500 to 1000 | 500 to 1000 |  | 
8 | Nc1ccc(-c2ccccc2F)nc1NC(=O)N1CC(C(F)(F)c2ncccn2)C1 [Compound 35] | 500 to 1000 | 1000 to 2000 | 500 to 1000 |  | 
9 | Nc1ccc(-c2ccc(F)cc2)nc1NC(=O)N1CC(C(F)(F)c2ncccn2)C1 [Compound 36] | 1000 to 2000 | < 500 | < 500 |  | 
10 | Nc1ccc(-c2ccccc2F)nc1NC(=O)N1CC(C(F)(F)c2ncc(F)cn2)C1 [Compound 37] | 500 to 1000 | 500 to 1000 | 500 to 1000 |  | 
11 | Nc1ccc(-c2ccc(F)cc2)nc1NC(=O)N1CC(C(F)(F)c2ncc(F)cn2)C1 [Compound 38] | 500 to 1000 | < 500 | < 500 |  | 
12 | Nc1ccc(-c2ccc(F)cc2F)nc1NC(=O)N1CC(C(F)c2ncccn2)C1 (stereo not drawn) [Compound 40] | 500 to 1000 | 500 to 1000 | 1000 to 2000 |  | 
13 | CC(c1ncccn1)C1CN(C(=O)Nc2nc(-c3ccc(F)cc3F)ccc2N)C1 (stereo not drawn) [Compound 42] | < 500 | 500 to 1000 | 1000 to 2000 |  | 
14 | Nc1ccc(-c2ccc(F)cc2F)nc1NC(=O)N1CC(CCc2ccccn2)C1 [Compound 43] | > 2000 | 500 to 1000 | > 2000 |  | 
15 | Nc1ccc(-c2ccc(F)cc2F)nc1NC(=O)N1CC(CCc2ncccn2)C1 [Compound 44] | > 2000 | > 2000 | > 2000 |  | 
16 | Cc1nnc(CC2CN(C(=O)Nc3nc(-c4ccc(F)cc4F)ccc3N)C2)s1 [Compound 45] | 500 to 1000 | 500 to 1000 | 1000 to 2000 |  | 
17 | Nc1ccc(-c2ccc(F)cc2F)nc1NC(=O)N1CC(Cc2nnc(C(F)(F)F)s2)C1 [Compound 46] | > 2000 | 1000 to 2000 | 1000 to 2000 |  | 
18 | Cn1ccnc1CC1CN(C(=O)Nc2nc(-c3ccc(F)cc3F)ccc2N)C1 [Compound 47] | 1000 to 2000 | 500 to 1000 | 1000 to 2000 |  | 
19 | CC(c1ncccn1)C1CN(C(=O)Nc2nc(-c3ccc(F)cc3)ccc2N)C1 (stereo not drawn) [Compound 57] | 1000 to 2000 | < 500 | 500 to 1000 |  | 
20 | Nc1ccc(-c2ccc(F)cc2F)nc1NC(=O)N1CC(Oc2ncccn2)C1 [Compound 59] | > 2000 | < 500 | 500 to 1000 |  | 
21 | Nc1ccc(-c2ccc(F)s2)nc1NC(=O)N1CC(Cc2ncc(F)cn2)C1 [Compound 61] | 1000 to 2000 | < 500 | 500 to 1000 |  | 

Row | SMILES | IC50 (HDAC2) [nM] | IC50 (Full length Human HDAC1; Table 2, class symbols) [nM] | IC50 (Full length Human HDAC2; Table 2, class symbols) [nM] | IC50 (Full length Human HDAC1; Table 2, numeric value) [nM] | IC50 (Full length Human HDAC2; Table 2, numeric value) [nM]
22 | Nc1ccc(-c2ccc(F)cc2)nc1NC(=O)N1CC(Cc2ncccn2)C1 [Compound 64] | 500 to 1000 | < 500 | 1000 to 2000 |  | 
23 | Cc1cnc(CC2CN(C(=O)Nc3nc(-c4ccc(F)cc4)ccc3N)C2)nc1 [Compound 65] | 500 to 1000 | < 500 | 500 to 1000 |  | 
24 | Nc1ccc(-c2ccc(F)s2)nc1NC(=O)N1CC(Cc2ncccn2)C1 [Compound 66] | 1000 to 2000 | < 500 | 500 to 1000 |  | 
25 | Nc1ccc(-c2cccs2)nc1NC(=O)N1CC(Cc2ncccn2)C1 [Compound 68] | 500 to 1000 | < 500 | 1000 to 2000 |  | 
26 | Nc1ccc(-c2cccs2)nc1NC(=O)N1CC(Cc2ncc(F)cn2)C1 [Compound 69] | 1000 to 2000 | < 500 | 1000 to 2000 |  | 
27 | Nc1ccc(-c2cccs2)nc1NC(=O)N1CC(C(F)(F)c2ncccn2)C1 [Compound 70] | 1000 to 2000 | < 500 | 500 to 1000 |  | 
28 | Cn1ccnc1CC1CN(C(=O)Nc2nc(-c3ccc(F)cc3)ccc2N)C1 [Compound 71] | 500 to 1000 | 500 to 1000 | > 2000 |  | 
29 | Cc1ccnc(CC2CN(C(=O)Nc3nc(-c4ccc(F)cc4)ccc3N)C2)n1 [Compound 72] | 1000 to 2000 | < 500 | 500 to 1000 |  | 
30 | Nc1ccc(-c2ccc(F)cc2)nc1NC(=O)N1CC(Cn2cccn2)C1 [Compound 73] | 1000 to 2000 | 500 to 1000 | 1000 to 2000 |  | 
31 | Nc1ccc(-c2ccc(F)cc2)nc1NC(=O)N1CC(Cc2ccccn2)C1 [Compound 74] | 1000 to 2000 | < 500 | 500 to 1000 |  | 
32 | Nc1ccc(-c2ccc(F)cc2)nc1NC(=O)N1CC(Cc2ncc(C(F)F)cn2)C1 [Compound 76] | 1000 to 2000 | < 500 | 500 to 1000 |  | 
33 | Nc1ccc(-c2ccc(F)cc2)nc1NC(=O)N1CC(Cc2ccc(F)cn2)C1 [Compound 77] | > 2000 | < 500 | 1000 to 2000 |  | 
34 | Nc1ccc(-c2ccc(F)cc2)nc1NC(=O)N1CC(Cc2cnc(C(F)(F)F)nc2)C1 [Compound 78] | > 2000 | > 2000 | > 2000 |  | 
35 | Cc1cccc(CC2CN(C(=O)Nc3nc(-c4ccc(F)cc4)ccc3N)C2)n1 [Compound 79] | > 2000 | 500 to 1000 | 1000 to 2000 |  | 
36 | Cc1ncc(CC2CN(C(=O)Nc3nc(-c4ccc(F)cc4)ccc3N)C2)cn1 [Compound 80] | 1000 to 2000 | 500 to 1000 | 1000 to 2000 |  | 
37 | CC(F)(F)c1cnc(CC2CN(C(=O)Nc3nc(-c4ccc(F)cc4)ccc3N)C2)nc1 [Compound 81] | > 2000 | < 500 | 500 to 1000 |  | 
38 | COCc1cnc(CC2CN(C(=O)Nc3nc(-c4ccc(F)cc4)ccc3N)C2)nc1 [Compound 82] | 1000 to 2000 | < 500 | 500 to 1000 |  | 
39 | COCc1ccc(CC2CN(C(=O)Nc3nc(-c4ccc(F)cc4)ccc3N)C2)nc1 [Compound 83] | 1000 to 2000 | < 500 | 500 to 1000 |  | 
40 | Nc1ccc(-c2ccc(F)cc2)nc1NC(=O)N1CC(Cc2ncc(C(F)(F)F)cn2)C1 [Compound 84] | > 2000 |  |  | 346 | 1190
41 | Cn1ccnc1CC1(F)CN(C(=O)Nc2nc(-c3ccc(F)cc3)ccc2N)C1 [Compound 86] | 1000 to 2000 | 1000 to 2000 | > 2000 |  | 
42 | COC1(Cc2nccn2C)CN(C(=O)Nc2nc(-c3ccc(F)cc3)ccc2N)C1 [Compound 87] | 1000 to 2000 | > 2000 | > 2000 |  | 
